# Measurements from patent US11524968B2, “Heterocyclic compound as a protein kinase inhibitor” (HK inno.N Corporation, priority 2017, dated 2022).
# Target: JAK1 (Homo sapiens (Human), UniProt P23458)
# Assay: Analysis of JAK1 activity inhibition ability (ADP-Glo Kinase Assay)
# Format: biochemical
# Settings: JAK1 enzyme, ADP-Glo luminescence, ATP 250 uM, IRS-itide substrate, 30° C. 40 minutes; read-out: IC50
# Procedure, shortened: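 ADP-Glo luminescence read-out of ADP production, with IC50 taken as the concentration halving JAK1 activity relative to control. Enzyme was incubated 40 min at 30 °C with compound, IRS-itide (40 ng/mL) and ATP (250 uM), concentrations as prepared in pH 7.5 Tris-HCl/MgCl2/BSA/DTT buffer.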
# Sequence of JAK1 (P23458 whole entry): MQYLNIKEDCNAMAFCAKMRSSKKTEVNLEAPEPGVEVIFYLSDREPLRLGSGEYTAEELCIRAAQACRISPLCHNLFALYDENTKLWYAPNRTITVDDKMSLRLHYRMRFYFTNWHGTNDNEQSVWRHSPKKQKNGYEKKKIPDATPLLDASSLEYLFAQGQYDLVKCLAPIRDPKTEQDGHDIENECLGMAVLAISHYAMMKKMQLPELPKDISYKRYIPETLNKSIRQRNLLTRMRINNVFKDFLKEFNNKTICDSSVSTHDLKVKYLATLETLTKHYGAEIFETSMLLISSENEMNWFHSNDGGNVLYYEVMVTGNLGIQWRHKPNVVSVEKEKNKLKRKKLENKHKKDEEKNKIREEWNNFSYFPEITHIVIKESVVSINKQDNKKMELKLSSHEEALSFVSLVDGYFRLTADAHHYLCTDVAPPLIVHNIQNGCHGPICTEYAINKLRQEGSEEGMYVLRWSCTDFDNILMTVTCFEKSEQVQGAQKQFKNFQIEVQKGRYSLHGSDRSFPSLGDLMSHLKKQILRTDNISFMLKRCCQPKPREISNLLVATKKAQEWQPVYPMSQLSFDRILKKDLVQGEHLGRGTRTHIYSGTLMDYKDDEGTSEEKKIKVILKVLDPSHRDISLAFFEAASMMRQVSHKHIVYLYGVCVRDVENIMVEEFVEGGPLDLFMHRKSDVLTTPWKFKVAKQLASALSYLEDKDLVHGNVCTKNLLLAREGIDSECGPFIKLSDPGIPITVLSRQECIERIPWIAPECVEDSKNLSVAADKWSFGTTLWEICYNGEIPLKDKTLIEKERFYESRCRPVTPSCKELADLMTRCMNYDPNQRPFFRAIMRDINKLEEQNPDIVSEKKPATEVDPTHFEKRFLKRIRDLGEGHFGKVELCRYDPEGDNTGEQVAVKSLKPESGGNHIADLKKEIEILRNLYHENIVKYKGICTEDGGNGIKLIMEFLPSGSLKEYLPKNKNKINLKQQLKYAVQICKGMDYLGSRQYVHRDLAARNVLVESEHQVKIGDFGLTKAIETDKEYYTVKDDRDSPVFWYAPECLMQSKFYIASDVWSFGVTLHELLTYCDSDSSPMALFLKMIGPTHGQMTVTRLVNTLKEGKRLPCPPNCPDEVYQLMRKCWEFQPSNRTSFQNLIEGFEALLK
row,SMILES,IC50
1,"CCC1CN(C(=O)CCC#N)CC=C1c1cc(NC(=O)C2CC2)nc2[nH]ccc12 (centres unmarked) [Example 295, N-(4-(1-(3-cyanopropanoyl)-3-ethyl-1,2,3,6-tetrahydropyridin-4-yl)-1H-pyrrolo[2,3-b]pyridin-6-yl)cyclopropanecarboxamide]",< 20 nM
2,"CC1=C(c2cc(NC(=O)C3CC3)nc3[nH]ccc23)CCN(C(=O)CC#N)C1 [Example 296, N-(4-(1-(2-cyanoacetyl)-5-methyl-1,2,3,6-tetrahydropyridin-4-yl)-1H-pyrrolo[2,3-b]pyridin-6-yl)cyclopropanecarboxamide]",20 to 200 nM
3,"O=C(Nc1cc(C2=CCN(C(=O)CCl)CC2)c2cc[nH]c2n1)C1CC1 [Example 298, N-(4-(1-(2-chloroacetyl)-1,2,3,6-tetrahydropyridin-4-yl)-1H-pyrrolo[2,3-b]pyridin-6-yl)cyclopropanecarboxamide]",20 to 200 nM
4,"CC1(C)CN(C(=O)CC#N)CC=C1c1cc(NC(=O)C2CC2)nc2[nH]ccc12 [Example 299, N-(4-(1-(2-cyanoacetyl)-3,3-dimethyl-1,2,3,6-tetrahydropyridin-4-yl)-1H-pyrrolo[2,3-b]pyridin-6-yl)cyclopropanecarboxamide]",20 to 200 nM
5,"CC1(C)CN(C(=O)CCC#N)CC=C1c1cc(NC(=O)C2CC2)nc2[nH]ccc12 [Example 300, N-(4-(1-(3-cyanopropanoyl)-3,3-dimethyl-1,2,3,6-tetrahydropyridin-4-yl)-1H-pyrrolo[2,3-b]pyridin-6-yl)cyclopropanecarboxamide]",20 to 200 nM
6,"N#CCC(=O)N1CC=C(c2cc(NC(=O)c3ccco3)nc3[nH]ccc23)CC1 [Example 301, N-(4-(1-(2-cyanoacetyl)-1,2,3,6-tetrahydropyridin-4-yl)-1H-pyrrolo[2,3-b]pyridin-6-yl)furan-2-carboxamide]",> 200 nM
7,"N#CCCC(=O)N1CC=C(c2cc(NC(=O)C3CC3)nc3[nH]ccc23)C2(CC2)C1 [Example 302, N-(4-(5-(3-cyanopropanoyl)-5-azaspiro[2.5]oct-7-en-8-yl)-1H-pyrrolo[2,3-b]pyridin-6-yl)cyclopropanecarboxamide]",20 to 200 nM
8,"N#CCC(=O)N1CC=C(c2cc(NC(=O)C3CC3)nc3[nH]ccc23)C2(CC2)C1 [Example 303, N-(4-(5-(2-cyanoacetyl)-5-azaspiro[2.5]oct-7-en-8-yl)-1H-pyrrolo[2,3-b]pyridin-6-yl)cyclopropanecarboxamide]",< 20 nM
9,"C[C@@H]1CN(C(=O)CC#N)CC=C1c1cc(NC(=O)C2CC2)nc2[nH]ccc12 [Example 304, (S)—N-(4-(1-(2-cyanoacetyl)-3-methyl-1,2,3,6-tetrahydropyridin-4-yl)-1H-pyrrolo[2,3-b]pyridin-6-yl)cyclopropanecarboxamide]",< 20 nM
10,"Cc1ncc(C(=O)N2CC=C(c3cc(NC(=O)C4CC4)nc4[nH]ccc34)C(C)C2)s1 (centres unmarked) [Example 306, N-(4-(3-methyl-1-(2-methylthiazole-5-carbonyl)-1,2,3,6-tetrahydropyridin-4-yl)-1H-pyrrolo[2,3-b]pyridin-6-yl)cyclopropanecarboxamide]",20 to 200 nM
11,"Cc1nc(C)c(C(=O)N2CC=C(c3cc(NC(=O)C4CC4)nc4[nH]ccc34)C(C)C2)s1 (centres unmarked) [Example 307, N-(4-(1-(2,4-dimethylthiazole-5-carbonyl)-3-methyl-1,2,3,6-tetrahydropyridin-4-yl)-1H-pyrrolo[2,3-b]pyridin-6-yl)cyclopropanecarboxamide]",> 200 nM
12,"Cc1ncsc1C(=O)N1CC=C(c2cc(NC(=O)C3CC3)nc3[nH]ccc23)C(C)C1 (centres unmarked) [Example 308, N-(4-(3-methyl-1-(4-methylthiazole-5-carbonyl)-1,2,3,6-tetrahydropyridin-4-yl)-1H-pyrrolo[2,3-b]pyridin-6-yl)cyclopropanecarboxamide]",20 to 200 nM
13,"CC1CN(C(=O)c2ccnc(F)c2)CC=C1c1cc(NC(=O)C2CC2)nc2[nH]ccc12 (centres unmarked) [Example 309, N-(4-(1-(2-fluoroisonicotinoyl)-3-methyl-1,2,3,6-tetrahydropyridin-4-yl)-1H-pyrrolo[2,3-b]pyridin-6-yl)cyclopropanecarboxamide]",< 20 nM
14,"CC1CN(C(=O)c2ccnc(Cl)c2)CC=C1c1cc(NC(=O)C2CC2)nc2[nH]ccc12 (centres unmarked) [Example 310, N-(4-(1-(2-chloroisonicotinoyl)-3-methyl-1,2,3,6-tetrahydropyridin-4-yl)-1H-pyrrolo[2,3-b]pyridin-6-yl)cyclopropanecarboxamide]",< 20 nM
15,"CC1CN(C(=O)c2ccc(F)c(F)c2)CC=C1c1cc(NC(=O)C2CC2)nc2[nH]ccc12 (centres unmarked) [Example 311, N-(4-(1-(3,4-difluorobenzoyl)-3-methyl-1,2,3,6-tetrahydropyridin-4-yl)-1H-pyrrolo[2,3-b]pyridin-6-yl)cyclopropanecarboxamide]",20 to 200 nM
16,"COc1ccc(C(=O)N2CC=C(c3cc(NC(=O)C4CC4)nc4[nH]ccc34)C(C)C2)cc1F (centres unmarked) [Example 312, N-(4-(1-(3-fluoro-4-methoxybenzoyl)-3-methyl-1,2,3,6-tetrahydropyridin-4-yl)-1H-pyrrolo[2,3-b]pyridin-6-yl)cyclopropanecarboxamide]",20 to 200 nM
17,"CC1CN(C(=O)c2ccc[nH]2)CC=C1c1cc(NC(=O)C2CC2)nc2[nH]ccc12 (centres unmarked) [Example 313, N-(4-(3-methyl-1-(1H-pyrrole-2-carbonyl)-1,2,3,6-tetrahydropyridin-4-yl)-1H-pyrrolo[2,3-b]pyridin-6-yl)cyclopropanecarboxamide]",20 to 200 nM
18,"CC1CN(C(=O)c2ccncc2F)CC=C1c1cc(NC(=O)C2CC2)nc2[nH]ccc12 (centres unmarked) [Example 314, N-(4-(1-(3-fluoroisonicotinoyl)-3-methyl-1,2,3,6-tetrahydropyridin-4-yl)-1H-pyrrolo[2,3-b]pyridin-6-yl)cyclopropanecarboxamide]",20 to 200 nM
19,"CC1CN(C(=O)c2cccc(CCN3C(=O)COCC3=O)c2)CC=C1c1cc(NC(=O)C2CC2)nc2[nH]ccc12 (centres unmarked) [Example 315, N-(4-(1-(3-(2-(3,5-dioxomorpholino)ethyl)benzoyl)-3-methyl-1,2,3,6-tetrahydropyridin-4-yl)-1H-pyrrolo[2,3-b]pyridin-6-yl)cyclopropanecarboxamide]",> 200 nM
20,"CC1CN(C(=O)c2cccc(Nc3ccccc3)c2)CC=C1c1cc(NC(=O)C2CC2)nc2[nH]ccc12 (centres unmarked) [Example 316, N-(4-(3-methyl-1-(3-(phenylamino)benzoyl)-1,2,3,6-tetrahydropyridin-4-yl)-1H-pyrrolo[2,3-b]pyridin-6-yl)cyclopropanecarboxamide]",> 200 nM
21,"CC1CN(C(=O)c2ccc(-c3ccc(F)cc3F)[nH]c2=O)CC=C1c1cc(NC(=O)C2CC2)nc2[nH]ccc12 (centres unmarked) [Example 317, N-(4-(1-(6-(2,4-difluorophenyl)-2-oxo-1,2-dihydropyridine-3-carbonyl)-3-methyl-1,2,3,6-tetrahydropyridin-4-yl)-1H-pyrrolo[2,3-b]pyridin-6-yl)cyclopropanecarboxamide]",> 200 nM
22,"COC(=O)C1(C(=O)N2CC=C(c3cc(NC(=O)C4CC4)nc4[nH]ccc34)C(C)C2)CCC1 (centres unmarked) [Example 318, methyl 1-(4-(6-(cyclopropanecarboxamido)-1H-pyrrolo[2,3-b]pyridin-4-yl)-3-methyl-1,2,3,6-tetrahydropyridine-1-carbonyl)cyclobutane-1-carboxylate]",> 200 nM
23,"COC(=O)C1(C(=O)N2CC=C(c3cc(NC(=O)C4CC4)nc4[nH]ccc34)C(C)C2)CC1 (centres unmarked) [Example 319, methyl 1-(4-(6-(cyclopropanecarboxamido)-1H-pyrrolo[2,3-b]pyridin-4-yl)-3-methyl-1,2,3,6-tetrahydropyridine-1-carbonyl)cyclopropane-1-carboxylate]",> 200 nM
24,"COC(=O)C(C)C(=O)N1CC=C(c2cc(NC(=O)C3CC3)nc3[nH]ccc23)C(C)C1 (centres unmarked) [Example 320, methyl 3-(4-(6-(cyclopropanecarboxamido)-1H-pyrrolo[2,3-b]pyridin-4-yl)-3-methyl-3,6-dihydropyridin-1 (2H)-yl)-2-methyl-3-oxopropanoate]",> 200 nM
25,"CC1CN(C(=O)c2ccc(C(C)(C)C)[nH]c2=O)CC=C1c1cc(NC(=O)C2CC2)nc2[nH]ccc12 (centres unmarked) [Example 321, N-(4-(1-(6-(tert-butyl)-2-oxo-1,2-dihydropyridine-3-carbonyl)-3-methyl-1,2,3,6-tetrahydropyridin-4-yl)-1H-pyrrolo[2,3-b]pyridin-6-yl)cyclopropanecarboxamide]",> 200 nM
26,"CC1CN(C(=O)c2ccc(-c3ccc(F)cc3)[nH]c2=O)CC=C1c1cc(NC(=O)C2CC2)nc2[nH]ccc12 (centres unmarked) [Example 322, N-(4-(1-(6-(4-fluorophenyl)-2-oxo-1,2-dihydropyridine-3-carbonyl)-3-methyl-1,2,3,6-tetrahydropyridin-4-yl)-1H-pyrrolo[2,3-b]pyridin-6-yl)cyclopropanecarboxamide]",> 200 nM
27,"CC1CN(C(=O)c2ccc(NCCN3CCOCC3)c(F)c2)CC=C1c1cc(NC(=O)C2CC2)nc2[nH]ccc12 (centres unmarked) [Example 323, N-(4-(1-(3-fluoro-4-((2-morpholinoethyl)amino)benzoyl)-3-methyl-1,2,3,6-tetrahydropyridin-4-yl)-1H-pyrrolo[2,3-b]pyridin-6-yl)cyclopropanecarboxamide]",> 200 nM
28,"CC1CN(C(=O)c2cncc(Br)c2)CC=C1c1cc(NC(=O)C2CC2)nc2[nH]ccc12 (centres unmarked) [Example 324, N-(4-(1-(5-bromonicotinoyl)-3-methyl-1,2,3,6-tetrahydropyridin-4-yl)-1H-pyrrolo[2,3-b]pyridin-6-yl)cyclopropanecarboxamide]",20 to 200 nM
29,"CC1CN(C(=O)c2ccc3c(c2)OCCO3)CC=C1c1cc(NC(=O)C2CC2)nc2[nH]ccc12 (centres unmarked) [Example 325, N-(4-(1-(2,3-dihydrobenzo[b][1,4]dioxine-6-carbonyl)-3-methyl-1,2,3,6-tetrahydropyridin-4-yl)-1H-pyrrolo[2,3-b]pyridin-6-yl)cyclopropanecarboxamide]",20 to 200 nM
